What all share (type): functional, cell-based
The test system of one experiment is A549. In words: Cytotoxicity against human A549 cells by MTT assay.
Another experiment relates to MCF7. The experiment is described as follows: Cytotoxicity against human MCF7 cells by MTT assay.
In another experiment the test system is KB. In words: Cytotoxicity against human KB cells by MTT assay.

SMILES strings stand for the structures. In brackets after ≈: the same amount, converted by molar mass.

Turning to `C=C1C(=O)O[C@]2(C)CC[C@@H]1C[C@@H](O)[C@@](C)(O)CC/C=C(\C)CC[C@@H]2O` [CAPILLOLIDE], the IC50 in the experiment on A549 turned out to be 0.5 µg/mL (≈ 1.42 µM).

On to `C/C1=C\[C@@H]2[C@H](CC[C@H](C)CC(=O)[C@@H]3O[C@]3(C)/C=C/C1=O)C2(C)C` [MICROCLAVATIN], for which the figures for the IC50 in the experiment on MCF7 and with KB were 20 µg/mL (≈ 63.2 µM) and 5 µg/mL (≈ 15.8 µM), respectively.

The values above are taken from ChEMBL document CHEMBL1141753, “Cytotoxic diterpenoids from the soft coral Sinularia microclavata” (J Nat Prod, 2005).
